{
  "source": "patent US20230057602A1",
  "about": "“METHODS OF TREATMENT WITH ANTIBODIES AGAINST BCMA AND CD3” (BRISTOL-MYERS SQUIBB COMPANY, priority 2019, published 2023)",
  "format_in_all_cases": "cell-based, human",
  "key": {"[1]": {"tested_on": "MM1S BCMA-expressing myeloma cell line co-cultured with T-cells", "experiment": "CC-93269-induced cytokine secretion, T-cell co-culture with MM1S", "settings": "1 μM DEX vs DMSO control, highest concentration of CC-93269, 72 hours, 3 donors"}, "[2]": {"tested_on": "SKMM2 BCMA-expressing myeloma cell line co-cultured with T-cells", "experiment": "CC-93269-induced cytokine secretion, T-cell co-culture with SKMM2", "settings": "1 μM DEX vs DMSO control, highest concentration of CC-93269, 72 hours, 3 donors"}, "BCMA+ tumour cell lines": {"tested_on": "BCMA+ tumour cell lines", "experiment": "CC-93269-induced redirected lysis of BCMA+ tumour cell lines (overall)", "settings": "co-treatment with CC-93269", "procedure": "The cocultures were incubated at 37° C. with 5% CO2. After 72 hours of incubation, culture supernatants were harvested and stored at −80° C. The cells were labeled with Live/Dead Fixable Aqua Dead Cell Stain, according to the manufacturer's instructions for 30 minutes at RT. Subsequently, cells were stained with antibodies against the following cell surface markers: CD2, CD3, CD4, CD8, CD69, CD25, HLA-DR, and CD154 in a final volume of 50 μL of flow staining buffer. After staining for cell surface molecules, the cells were washed once with 150 μL flow staining buffer, resuspended in 50 μL of BD Cytofix fixation buffer, and incubated for 30 minutes at RT. Cells were washed with 150 μL of flow staining buffer and resuspended in a final volume of 50 μL of flow staining buffer for analysis on an IQUE Screener plus instrument (Intellicyt, Albuquerque, N. Mex.). […] The IC50 values were calculated using non-linear regression analysis, sigmoidal dose-response using GraphPad Prism (version 5.0) software."}, "[3]": {"tested_on": "BCMA-expressing tumour cell lines co-cultured with T-cells", "experiment": "CC-93269-mediated cytokine release across the four co-cultures", "settings": "1 μM DEX vs DMSO control, highest concentration of CC-93269"}, "[4]": {"tested_on": "H929 BCMA-expressing myeloma cell line co-cultured with T-cells", "experiment": "CC-93269-induced cytokine secretion, T-cell co-culture with H929", "settings": "1 μM DEX vs DMSO control, highest concentration of CC-93269, 72 hours, 3 donors"}, "[5]": {"tested_on": "KMS12-PE BCMA-expressing myeloma cell line co-cultured with T-cells", "experiment": "CC-93269-induced cytokine secretion, T-cell co-culture with KMS12-PE", "settings": "1 μM DEX vs DMSO control, highest concentration of CC-93269, 72 hours, 3 donors"}},
  "data": [
    {"smiles": "C[C@@H]1C[C@H]2[C@@H]3CCC4=CC(=O)C=C[C@]4(C)[C@@]3(F)[C@@H](O)C[C@]2(C)[C@@]1(O)C(=O)CO", "note": "[Dexamethasone, dexamethasone]", "values": [
      {"measurement": "% Reduction of CC-93269-induced IL-2 secretion, Mean", "setting": "[1]", "result": 57.6, "unit": "%"},
      {"measurement": "% Reduction of CC-93269-induced TNF-α secretion, Mean", "setting": "[1]", "result": 50.3, "unit": "%"},
      {"measurement": "% Reduction of CC-93269-induced IL-2 secretion, Mean", "setting": "[2]", "result": 56.5, "unit": "%"},
      {"measurement": "% Reduction of CC-93269-induced TNF-α secretion, Mean", "setting": "[2]", "result": 46.3, "unit": "%"},
      {"measurement": "effect of dexamethasone on CC-93269-induced redirected lysis / cytotoxic activity", "setting": "BCMA+ tumour cell lines", "result": "minimally affected"},
      {"measurement": "effect of dexamethasone on CC-93269-induced redirected lysis / cytotoxic activity", "setting": "BCMA+ tumour cell lines; listed as dexamethasone", "result": "minimal suppressive impact"},
      {"measurement": "lowering of CC-93269-mediated release of IL-2", "setting": "[3]", "result": "48.3-74.1%"},
      {"measurement": "lowering of CC-93269-mediated release of TNF-α", "setting": "[3]", "result": "46.3-61.8%"},
      {"measurement": "% Reduction of CC-93269-induced IL-2 secretion, Mean", "setting": "[4]", "result": 74.1, "unit": "%"},
      {"measurement": "% Reduction of CC-93269-induced TNF-α secretion, Mean", "setting": "[4]", "result": 61.8, "unit": "%"},
      {"measurement": "% Reduction of CC-93269-induced IL-2 secretion, Mean", "setting": "[5]", "result": 48.3, "unit": "%"},
      {"measurement": "% Reduction of CC-93269-induced TNF-α secretion, Mean", "setting": "[5]", "result": 53.9, "unit": "%"}
    ]}
  ]
}
